Assay results: paper PMC9090415, “Discovery of small molecule inhibitors of Plasmodium falciparum apicoplast DNA polymerase” (Journal of Enzyme Inhibition and Medicinal Chemistry, 2022)

Molecular target: P. falciparum apicoplast DNA polymerase (Pf-apPOL) (Plasmodium falciparum, UniProt Q8ILY1)
Experiment: Fluorescence-based high-throughput DNA polymerase assay (molecular beacon), primary screen and dose-response;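 on % inhibition ApPOL 90': test concentration in µM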;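 on % inhibition apPOL 180': test concentration in µM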
Assay type: biochemical
In short: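 Single-point screening used 10 µM compound with 20 nM polymerase, 20 nM hairpin substrate and 6 µM dNTPs for 90 min at 25 °C. Confirmatory titrations (2.5–80 µM) followed fluorescence at three times, and IC50 was derived from a fit including a cooperativity term n.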

Chain of P. falciparum apicoplast DNA polymerase (Pf-apPOL) (Q8ILY1 entry or part of it): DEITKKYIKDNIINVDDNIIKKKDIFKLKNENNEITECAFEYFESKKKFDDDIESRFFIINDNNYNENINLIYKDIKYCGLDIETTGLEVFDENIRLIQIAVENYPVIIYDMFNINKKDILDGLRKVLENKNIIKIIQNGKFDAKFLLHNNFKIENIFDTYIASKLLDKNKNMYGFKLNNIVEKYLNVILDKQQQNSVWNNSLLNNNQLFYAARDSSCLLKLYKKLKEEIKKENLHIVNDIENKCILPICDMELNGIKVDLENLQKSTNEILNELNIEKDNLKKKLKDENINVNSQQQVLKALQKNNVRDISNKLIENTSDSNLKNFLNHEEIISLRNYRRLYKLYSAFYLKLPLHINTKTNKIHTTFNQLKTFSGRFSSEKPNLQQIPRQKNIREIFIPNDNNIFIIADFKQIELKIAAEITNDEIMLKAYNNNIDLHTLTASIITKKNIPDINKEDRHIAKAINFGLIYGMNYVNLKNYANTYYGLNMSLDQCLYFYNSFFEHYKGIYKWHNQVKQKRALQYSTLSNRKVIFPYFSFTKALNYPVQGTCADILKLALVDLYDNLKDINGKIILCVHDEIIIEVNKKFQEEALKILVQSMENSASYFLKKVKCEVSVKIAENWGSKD

COCCN(CCOC)Cc1c(O)ccc2c1OC(=Cc1cc(Br)ccc1OC)C2=O [KU0198471]
DNA Pol ('DNA Pol' of the 186 hits list (primary screen result); unit not given; 90 min, 10 µM): 63 | % inhibition Apo pol 10' (DRC-1; 10'; concentration 2.5): -2.842% | % inhibition Apo pol 10' (DRC-1; 10'; concentration 5): 2.517% | % inhibition Apo pol 10' (DRC-1; 10'; concentration 10): 15.0312% | % inhibition Apo pol 10' (DRC-1; 10'; concentration 20): 43.5523% | % inhibition Apo pol 10' (DRC-1; 10'; concentration 40): 79.9378% | % inhibition Apo pol 10' (DRC-1; 10'; concentration 80): 100.142% | % inhibition Apol 90' (DRC-1; 90'; concentration 2.5): 0.2446% | % inhibition Apol 90' (DRC-1; 90'; concentration 5): 8.305% | % inhibition Apol 90' (DRC-1; 90'; concentration 10): 20.0345% | % inhibition Apol 90' (DRC-1; 90'; concentration 20): 57.0182% | % inhibition Apol 90' (DRC-1; 90'; concentration 40): 88.9313% | % inhibition Apol 90' (DRC-1; 90'; concentration 80): 100.102% | % inhibition apPOL 180' (DRC-1; 180'; concentration 2.5): 3.8606% | % inhibition apPOL 180' (DRC-1; 180'; concentration 5): 14.5947% | % inhibition apPOL 180' (DRC-1; 180'; concentration 10): 28.8657% | % inhibition apPOL 180' (DRC-1; 180'; concentration 20): 74.003% | % inhibition apPOL 180' (DRC-1; 180'; concentration 40): 99.2826% | % inhibition apPOL 180' (DRC-1; 180'; concentration 80): 101.453% | % inhibition Apo pol 5' (DRC-2, 5', concentration 2.5 (unit not given)): 10% | % inhibition Apol 40' (DRC-2, 40', concentration 2.5 (unit not given)): 10% | % inhibition Apo pol 5' (DRC-2; 5'; concentration 2.5): 10% | % inhibition Apo pol 5' (DRC-2; 5'; concentration 5): 10% | % inhibition Apo pol 5' (DRC-2; 5'; concentration 5 (unit not given)): 10% | % inhibition Apo pol 5' (DRC-2; 5'; concentration 10): 33% | % inhibition Apo pol 5' (DRC-2; 5'; concentration 20): 48% | % inhibition Apo pol 5' (DRC-2; 5'; concentration 40): 59% | % inhibition Apo pol 5' (DRC-2; 5'; concentration 80): 60% | % inhibition Apol 40' (DRC-2; 40'; concentration 2.5): 10% | % inhibition Apol 40' (DRC-2; 40'; concentration 5): 6% | % inhibition Apol 40' (DRC-2; 40'; concentration 10): 36% | % inhibition Apol 40' (DRC-2; 40'; concentration 20): 53% | % inhibition Apol 40' (DRC-2; 40'; concentration 40): 73% | % inhibition Apol 40' (DRC-2; 40'; concentration 80): 79% | % inhibition ApPOL 90' (DRC-2; 90'; concentration 2.5): 10% | % inhibition ApPOL 90' (DRC-2; 90'; concentration 2.5 (unit not given)): 10% | % inhibition ApPOL 90' (DRC-2; 90'; concentration 5): -0.305% | % inhibition ApPOL 90' (DRC-2; 90'; concentration 10): 34% | % inhibition ApPOL 90' (DRC-2; 90'; concentration 20): 52% | % inhibition ApPOL 90' (DRC-2; 90'; concentration 40): 75% | % inhibition ApPOL 90' (DRC-2; 90'; concentration 80): 82% | % inhibition apPOL 180' (DRC-2; 180'; concentration 2.5): 4.6% | % inhibition apPOL 180' (DRC-2; 180'; concentration 5): -68% | % inhibition apPOL 180' (DRC-2; 180'; concentration 10): 25% | % inhibition apPOL 180' (DRC-2; 180'; concentration 20): 41% | % inhibition apPOL 180' (DRC-2; 180'; concentration 40): 72% | % inhibition apPOL 180' (DRC-2; 180'; concentration 80): 85% | DNA Pol (primary screen value of the library well; unit not given; 90 min, 10 µM): 63

O=C(c1c[nH]c2ncccc12)N1CCCCCC1 [Molecule 51]
IC50 (supplemental file 2, sheet IC50 nontoxic compounds; Pf-apPOL): 21.5 µM

O=[N+]([O-])c1ccc(SCc2ccco2)c2cccnc12 [KU0034480]
% inhibition Apo pol 10' (DRC-1; concentration 2.5; 10'): 15.1764% | % inhibition Apol 90' (DRC-1; concentration 2.5; 90'): 4.148% | % inhibition apPOL 180' (DRC-1; concentration 2.5; 180'): -3.317% | % inhibition Apo pol 10' (DRC-1; concentration 5; 10'): 32.9023% | % inhibition Apol 90' (DRC-1; concentration 5; 90'): 16.0357% | % inhibition apPOL 180' (DRC-1; concentration 5; 180'): 6.603% | % inhibition Apo pol 10' (DRC-1; concentration 10; 10'): 55.3292% | % inhibition Apol 90' (DRC-1; concentration 10; 90'): 36.0729% | % inhibition apPOL 180' (DRC-1; concentration 10; 180'): 23.8373% | % inhibition Apo pol 10' (DRC-1; concentration 20; 10'): 73.1419% | % inhibition Apol 90' (DRC-1; concentration 20; 90'): 49.2841% | % inhibition apPOL 180' (DRC-1; concentration 20; 180'): 26.1748% | % inhibition Apo pol 10' (DRC-1; concentration 40; 10'): 89.7276% | % inhibition Apol 90' (DRC-1; concentration 40; 90'): 77.8644% | % inhibition apPOL 180' (DRC-1; concentration 40; 180'): 65.2989% | % inhibition Apo pol 10' (DRC-1; concentration 80 (unit not given); 10'): 92.5619% | % inhibition Apol 90' (DRC-1; concentration 80; 90'): 91.6594% | % inhibition apPOL 180' (DRC-1; concentration 80; 180'): 89.7624% | % inhibition Apo pol 5' (DRC-2; 5'; concentration 2.5): 33% | % inhibition Apo pol 5' (DRC-2; 5'; concentration 5): 33% | % inhibition Apol 40' (DRC-2; 40'; concentration 5): 33% | % inhibition ApPOL 90' (DRC-2; 90'; concentration 40): 75% | % inhibition apPOL 180' (DRC-2; 180'; concentration 40): 75% | % inhibition apPOL 180' (DRC-2; 180'; concentration 80): 75% | % inhibition Apo pol 5' (DRC-2; concentration 2.5; 5'): 33% | % inhibition Apol 40' (DRC-2; concentration 2.5; 40'): 40% | % inhibition ApPOL 90' (DRC-2; concentration 2.5; 90'): 36% | % inhibition apPOL 180' (DRC-2; concentration 2.5; 180'): 26% | % inhibition Apo pol 5' (DRC-2; concentration 5; 5'): 33% | % inhibition Apol 40' (DRC-2; concentration 5; 40'): 33% | % inhibition ApPOL 90' (DRC-2; concentration 5; 90'): 29% | % inhibition apPOL 180' (DRC-2; concentration 5; 180'): 16% | % inhibition Apo pol 5' (DRC-2; concentration 10; 5'): 38% | % inhibition Apol 40' (DRC-2; concentration 10; 40'): 39% | % inhibition ApPOL 90' (DRC-2; concentration 10; 90'): 35% | % inhibition apPOL 180' (DRC-2; concentration 10; 180'): 22% | % inhibition Apo pol 5' (DRC-2; concentration 20; 5'): 47% | % inhibition Apol 40' (DRC-2; concentration 20; 40'): 63% | % inhibition ApPOL 90' (DRC-2; concentration 20; 90'): 62% | % inhibition apPOL 180' (DRC-2; concentration 20; 180'): 53% | % inhibition Apo pol 5' (DRC-2; concentration 40; 5'): 48% | % inhibition Apol 40' (DRC-2; concentration 40; 40'): 72% | % inhibition ApPOL 90' (DRC-2; concentration 40; 90'): 75% | % inhibition apPOL 180' (DRC-2; concentration 40; 180'): 75% | % inhibition Apo pol 5' (DRC-2; concentration 80; 5'): 13% | % inhibition Apol 40' (DRC-2; concentration 80; 40'): 57% | % inhibition ApPOL 90' (DRC-2; concentration 80; 90'): 66% | % inhibition apPOL 180' (DRC-2; concentration 80; 180'): 75% | DNA Pol (primary screen value of the 186 hits; unit not given; 90 min, 10 µM): 42 | DNA Pol (primary screen value; head prints only 'DNA Pol'; 90 min, 10 µM): 42
